Measured values published in paper PMC8074679, “Synthesis and pharmacological characterization of glucopyranosyl-conjugated benzyl derivatives as novel selective cytotoxic agents against colon cancer” (Royal Society Open Science, 2021).
Like-named read-outs stand apart in the source and are kept apart here.

Key:
293T cells = test: MTS cytotoxicity assay, 293T (model of normal cells); details: read-out: IC50 (μM) 293T
Procedure: (§3) HCT-116 cells were cultured in McCoy's 5a Modified Medium (Gibco, USA). […] Both media contain 10% fetal bovine serum (Gibco, USA) and 1% penicillin–streptomycin (Gibco, USA). Cells were maintained in incubator (Thermo Fisher, USA) supplied with 5% CO2 at 37°C. Only cells in logarithmic phase were used in all following experiments.
(§4) In brief, cells were seeded into 96-well plate (Corning, USA) with a density of 3000 cells/well for 24 h, and then treated with tested compounds at various concentrations for 72 h.

HCT-116 cells [1] = test: MTS cytotoxicity assay, HCT-116; details: for IC50: read-out: IC50 (μM) HCT-116; for selectivity: ratio of cytotoxicity against 293T cells over cytotoxicity against HCT-116 cells
Procedure: as §3, §4

HCT-116 cells [2] = test: Live cell imaging of confluence area (Incucyte); format: cell-based, human
Procedure: (§1) Thus, it was further studied to understand its underlying antiproliferation mechanism. The confluence areas of HCT-116 cells treated with various concentrations of compound 8d were detected by a live cell analysis imaging system.
Cells were seeded into 24-well plate (1 × 10^4 cells well^−1) for 24 h. Different concentrations of compound 8d were added to treat cells. Time-lapse photography of cells was recorded by Incucyte system. The confluences relative to total well area were calculated using a module of the cell confluence area analysing.

HCT-116 cells [3] = test: Annexin V/PI double staining, flow cytometry; format: cell-based, human; details: 2.5 and 5 µM
Procedure: (§2) Next, the type of cell death induced by compound 8d was investigated. […] Annexin V/PI staining assay were carried out to analyse the apoptotic rate of HCT-116 cells.
Cells were seeded in 6-well plates with a density of 5 × 10^5 cells per well and then treated with various concentrations of compound 8d (0 µM, 2.5 µM and 5 µM) for 48 h. Cells were collected and stained with annexin V and PI for 20 min, and then detected by flow cytometer (BD, USA) to analyse the apoptotic cell distribution. Living cells (annexin V^−/PI^−), early apoptotic cells (annexin V^+/PI^−), late apoptotic cells (annexin V^+/PI^+) and necrotic cells (annexin V^−/PI^+) were calculated in the Cell Quest software (BD, USA).

HCT-116 cells [4] = test: TUNEL assay; format: cell-based, human; details: 5 µM, 72 h
Procedure: as §2
TdT-UTP nick end-labelling (TUNEL) assay was used to detect the apoptotic cells by in situ cell death detection kit (Roche, Germany) according to the manufacturer's instruction. Briefly, HCT-116 cells were seeded on coverslips and cultured overnight, following treatment with compound 8d (5 µM) for 72 h, then fixed with 4% paraformaldehyde for 30 min and permeabilized with 0.1% Triton X-100 for 2 min on ice. TUNEL reaction mixture was applied to the cells in an atmosphere for 1 h at 37°C in the dark, following with converter-POD and DAB substrate treatment. Samples were detected by a microscope (Olympus, Japan).

HCT-116 cells [5] = test: Hoechst 33258 staining; format: cell-based, human; details: 5 µM, 48 or 72 h
Procedure: as §2
HCT-116 cells were seeded in coverslips for 24 h, and then compound 8d was incubated at a concentration of 5 µM for 48 or 72 h. Cells were incubated with Hoechst 33258 (Sigma, USA) in the dark at room temperature for 30 min after being fixed with 4% paraformaldehyde. The nuclear morphology of apoptosis was observed by fluorescence microscope (Olympus, Japan).

HCT-116 cells [6] = test: Colony formation assay; format: cell-based, human; details: pre-treatment 24 h with various concentrations, 9 days culture after withdrawal
Procedure: as §1
HCT-116 cells were seeded in 6-well plates at a density of 300 cells per well and cultured overnight, and then treated with various concentrations of compound 8d for 24 h. Cells were continuously cultured for 9 days after drug withdrawal. Finally, 1% crystal violet was used to stain cells after fixing with 4% paraformaldehyde, and the visible colonies were recorded by the microscope and counted manually using imageJ.

HCT-116 cells [7] = test: Annexin V staining in living cells; format: cell-based, human; details: 5 µM, 72 h
Procedure: as §2
Cells that seed on coverslips were treated with compound 8d (5 µM) for 72 h. Annexin V-FITC was used to target exposed phosphatidylserine which is a marker of early apoptosis. The nucleus of living cells was labelled by Hoechst 33258. The cells were observed by fluorescence microscope (Olympus, Japan).

[8] = MTS assay, 72 h treatment, mean ± s.d.

Question: Which IC50 (293T cells; Homo sapiens, HEK-293T, 72 h) does the source give for `CC(=O)OC[C@H]1OC(OC(C)=O)[C@H](n2cc(COCc3ccc(C(F)(F)F)cc3)nn2)[C@@H](OC(C)=O)[C@@H]1OC(C)=O` (stereo partly drawn) [8 h, 1-(1,3,4,6-Tetra-O-acetyl-D-glucopyranosyl)-4-(4-trifluoromethylbenzene)hydryloxymethyl-[1,2,3]-triazole] here?
Answer: 6.09 ± 0.42 µM

Question: And the IC50 (HCT-116 cells [1]; Homo sapiens, HCT-116, 72 h)?
Answer: 14.3 ± 2.18 µM

Question: What about the selectivity (HCT-116 cells [1]) of the same compound?
Answer: 0.42

Question: Which IC50 (293T cells; [8]) does the source give for `CC(=O)OC[C@H]1OC(OC(C)=O)[C@H](N)[C@@H](OC(C)=O)[C@@H]1OC(C)=O` (stereo partly drawn) [AOAG, reference compound] here?
Answer: > 200 µM

Question: What about the IC50 (HCT-116 cells [1]; [8]) of the same compound?
Answer: > 200 µM

Question: For `CC(=O)OC[C@H]1OC(OC(C)=O)[C@H](n2cc(COCc3ccc([N+](=O)[O-])cc3)nn2)[C@@H](OC(C)=O)[C@@H]1OC(C)=O` (stereo partly drawn) [Compound 8i, 1-(1,3,4,6-Tetra-O-acetyl-D-glucopyranosyl)-4-(4-nitrobenzene)hydryloxymethyl-[1,2,3]-triazole], which IC50 (293T cells; Homo sapiens, HEK-293T, 72 h) is on record?
Answer: 8 ± 0.77 µM

Question: And the IC50 (HCT-116 cells [1]; Homo sapiens, HCT-116, 72 h)?
Answer: 17.3 ± 3.86 µM

Question: And the selectivity (HCT-116 cells [1])?
Answer: 0.46

Question: For `CC(=O)OC[C@H]1OC(OC(C)=O)[C@H](N=[N+]=[N-])[C@@H](OC(C)=O)[C@@H]1OC(C)=O` (stereo partly drawn) [Compound 4, 1,3,4,6-Tetra-O-acetyl-2-azido-2-deoxy-D-glucose, reference compound], which IC50 (293T cells; Homo sapiens, HEK-293T, 72 h) is on record?
Answer: 46.9 ± 2.93 µM

Question: And the IC50 (HCT-116 cells [1]; Homo sapiens, HCT-116, 72 h)?
Answer: 97.5 ± 1.58 µM

Question: And the selectivity (HCT-116 cells [1])?
Answer: 0.48

Question: For `CC(=O)OC[C@H]1OC(OC(C)=O)[C@H](n2cc(COCc3ccc(Br)cc3)nn2)[C@@H](OC(C)=O)[C@@H]1OC(C)=O` (stereo partly drawn) [8 g, 1-(1,3,4,6-Tetra-O-acetyl-D-glucopyranosyl)-4-(4-bromobenzene)hydryloxymethyl-[1,2,3]-triazole], which IC50 (293T cells; Homo sapiens, HEK-293T, 72 h) is on record?
Answer: 11.7 ± 0.16 µM

Question: What about the IC50 (HCT-116 cells [1]; Homo sapiens, HCT-116, 72 h) of the same compound?
Answer: 4.55 ± 0.23 µM

Question: What about the selectivity (HCT-116 cells [1]) of the same compound?
Answer: 2.56

Question: With `CC(=O)OC[C@H]1OC(OC(C)=O)[C@H](n2cc(COCc3ccc(C)cc3)nn2)[C@@H](OC(C)=O)[C@@H]1OC(C)=O` (stereo partly drawn) [Compound 8c, 1-(1,3,4,6-Tetra-O-acetyl-D-glucopyranosyl)-4-(4-methylbenzene)hydryloxymethyl-[1,2,3]-triazole] as the compound, how does the IC50 (293T cells; Homo sapiens, HEK-293T, 72 h) read?
Answer: 19.57 ± 0.13 µM

Question: What about the IC50 (HCT-116 cells [1]; Homo sapiens, HCT-116, 72 h) of the same compound?
Answer: 6.4 ± 0.2 µM

Question: What about the selectivity (HCT-116 cells [1]) of the same compound?
Answer: 3.06

Question: With `CC(=O)OC[C@H]1OC(OC(C)=O)[C@H](n2cc(COCc3ccc(Cl)cc3)nn2)[C@@H](OC(C)=O)[C@@H]1OC(C)=O` (stereo partly drawn) [Compound 8f, 1-(1,3,4,6-Tetra-O-acetyl-D-glucopyranosyl)-4-(4-chlorobenzene)hydryloxymethyl-[1,2,3]-triazole] as the compound, how does the IC50 (293T cells; Homo sapiens, HEK-293T, 72 h) read?
Answer: 22.41 ± 0.05 µM

Question: What about the IC50 (HCT-116 cells [1]; Homo sapiens, HCT-116, 72 h) of the same compound?
Answer: 7.04 ± 0.06 µM

Question: What about the selectivity (HCT-116 cells [1]) of the same compound?
Answer: 3.18

Question: How did the IC50 (293T cells; Homo sapiens, HEK-293T, 72 h) turn out when `O=c1[nH]cc(F)c(=O)[nH]1` [Compound 5-FU, 5-Fluorouracil, reference compound] was run?
Answer: 9.13 ± 1.63 µM

Question: What about the IC50 (HCT-116 cells [1]; Homo sapiens, HCT-116, 72 h) of the same compound?
Answer: 3.62 ± 1.22 µM

Question: What about the selectivity (HCT-116 cells [1]) of the same compound?
Answer: 2.52

Question: `COc1ccc(COCc2cn([C@H]3C(OC(C)=O)O[C@H](COC(C)=O)[C@@H](OC(C)=O)[C@@H]3OC(C)=O)nn2)cc1` (stereo partly drawn) [Compound 8d, 1-(1,3,4,6-Tetra-O-acetyl-D-glucopyranosyl)-4-(4-methoxybenzene)hydryloxymethyl-[1,2,3]-triazole] was tested. Which IC50 (293T cells; Homo sapiens, HEK-293T, 72 h) did it give?
Answer: 31.35 ± 0.1 µM

Question: And the “proliferation of HCT-116 cells (confluence area)” value (HCT-116 cells [2]; 10 µM, for at least 72 h)?
Answer: completely inhibited

Question: And the “proliferation of HCT-116 cells (confluence area), dose dependence” value (HCT-116 cells [2]; various concentrations)?
Answer: dose-dependently inhibited the proliferation

Question: And the “induction of apoptosis, Annexin V/PI assay (in words)” value (HCT-116 cells [3])?
Answer: dose-dependently induced early apoptosis and late apoptosis

Question: And the “DNA fragmentation, TUNEL assay” value (HCT-116 cells [4])?
Answer: DNA fragmentation emerged

Question: And the “apoptotic DNA fragmentation, Hoechst 33258 staining” value (HCT-116 cells [5])?
Answer: Apoptotic DNA fragmentation

Question: And the “colony formation of HCT-116” value (HCT-116 cells [6])?
Answer: inhibited the colony formation of HCT-116 by a dose-dependent manner

Question: What about the IC50 (HCT-116 cells [1]; Homo sapiens, HCT-116, 72 h) of the same compound?
Answer: 2.88 ± 0.32 µM

Question: What about the “cytotoxicity / antiproliferation activity towards HCT-116 (in words)” value (HCT-116 cells [1]; MTS assay) of the same compound?
Answer: comparable to 5-FU

Question: And the selectivity (HCT-116 cells [1])?
Answer: 10.89

Question: And the “Annexin V-FITC staining on cellular membranes of living cells” value (HCT-116 cells [7])?
Answer: Annexin-V-positive staining emerged on cellular membranes

Question: What does the source list for `OCc1ccccc1` [Compound 6b, reference compound]?
Answer: IC50 (293T cells; Homo sapiens, HEK-293T, 72 h): > 200 µM; IC50 (HCT-116 cells [1]; Homo sapiens, HCT-116, 72 h): > 200 µM

Question: For `CC(=O)OC[C@H]1OC(OC(C)=O)[C@H](n2cc(COCc3ccc(F)cc3)nn2)[C@@H](OC(C)=O)[C@@H]1OC(C)=O` (stereo partly drawn) [Compound 8e, 1-(1,3,4,6-Tetra-O-acetyl-D-glucopyranosyl)-4-(4-fluorobenzene)hydryloxymethyl-[1,2,3]-triazole], which IC50 (293T cells; Homo sapiens, HEK-293T, 72 h) is on record?
Answer: 8.1 ± 0.08 µM

Question: What about the IC50 (HCT-116 cells [1]; Homo sapiens, HCT-116, 72 h) of the same compound?
Answer: 4.17 ± 0.06 µM

Question: What about the selectivity (HCT-116 cells [1]) of the same compound?
Answer: 1.94

Question: Which IC50 (293T cells; Homo sapiens, HEK-293T, 72 h) does the source give for `CC(=O)OC[C@H]1OC(OC(C)=O)[C@H](n2cc(CO)nn2)[C@@H](OC(C)=O)[C@@H]1OC(C)=O` (stereo partly drawn) [Compound 8a, 1-(1,3,4,6-Tetra-O-acetyl-D-glucopyranosyl)-4-hydroxymethyl-[1,2,3]-triazole] here?
Answer: > 50 µM

Question: And the IC50 (HCT-116 cells [1]; Homo sapiens, HCT-116, 72 h)?
Answer: > 50 µM

Question: What about the “cytotoxicity / antiproliferation activity towards HCT-116 (in words)” value (HCT-116 cells [1]; MTS assay) of the same compound?
Answer: fairly weak
